Results on 5 molecules are retold here after paper PMC11659602, “Discovering covalent cyclic peptide inhibitors of peptidyl arginine deiminase 4 (PADI4) using mRNA-display with a genetically encoded electrophilic warhead” (Communications Chemistry, 2024).

Assay [1] deals with T1, PADI4 (Homo sapiens, UniProt Q9UM07).
T1 construct: His6; made in house
The assay can be described thus: COLDER inhibition assay, BAEE substrate, with or without 1 h preincubation. Type of assay: biochemical. The settings on record: for IC50: COLDER; for remaining activity at 0.003 µM: peptide 0.003 µM; for remaining activity at 0.01 µM: peptide 0.01 µM; for remaining activity at 0.03 µM: peptide 0.03 µM; for remaining activity at 0.1 µM: peptide 0.1 µM; for remaining activity at 0.3 µM: peptide 0.3 µM; for remaining activity at 1 µM: peptide 1 µM; for remaining activity at 3 µM: peptide 3 µM; for remaining activity at 10 µM: peptide 10 µM; for remaining activity at 30 µM: peptide 30 µM; for remaining activity at 50 µM: peptide 50 µM. Here is the method: PADI4 citrullination activity was analysed using the COLDER assay in 96-well plates. Peptide dilutions were prepared from a 500 µM stock, to give a 10 times concentrated dilution series (500 µM, 300 µM, 100 µM, 30 µM, 10 µM, 3 µM, 1 µM, 0.3 µM, 0.1 µM and 0.03 µM) in COLDER buffer (50 mM HEPES, 150 mM NaCl and 2 mM DTT, pH 7.5) containing 1% DMSO. In triplicate, each was diluted 10-fold further when mixed with 50 nM His-PADI4, 0.6 mg/mL BSA and 10 mM CaCl2, in COLDER buffer. With or without one hour of incubation, 10 mM N^α-Benzoyl-L-arginine ethyl ester hydrochloride (BAEE, Merck) was added to initiate the reaction (50 µL final volume). After 30 min at rt, EDTA (50 mM final concentration) was used to quench the reaction and 200 µL of COLDER solution containing 20 mM Diacetyl monoxime/2,3-butanedione monoxime (Merck), 0.5 mM Thiosemicarbazide (Acros Organics), 2.25 M H3PO4, 4.5 M H2SO4 and 1.5 mM NH4Fe(SO4)2.12H2O was added to each well. Samples were incubated for 20 min at 95 °C before measuring absorbance at 540 nm on a CLARIOstar Plus (BMG LABTECH). Data analysis was performed with GraphPad Prism. Data are presented as the average ± standard error of the mean from at least two independent replicates.

Assay [2] has as its target T1, PADI4. The assay is described as follows: Surface plasmon resonance (SPR), single cycle kinetics. In kind it is binding. To be noted: for Ki: k-1/k+1; for Kd: reversible binding, 1:1 binding model. On the procedure:
S8. Surface plasmon resonance (SPR)
Using a Biacore S200 (GE Healthcare), biotinylated His-PADI4 (80 nM) was immobilised on a CAP chip (GE Healthcare) to a response unit of approx. 3000. At 25 °C, single cycle kinetics mode was used with 5 samples of a 3-fold dilution series of peptides PADI4_3_H4(2), cP4_2, […]
mM HEPES, 150 mM NaCl, 10 mM CaCl2, 0.05% Tween-20, 0.1% DMSO (pH 7.5). After each cycle, regeneration of the chip was carried out as per the manufacturer’s protocol. Data were analysed with the Biacore S200 Evaluation Software, each in triplicate. Warhead-containing peptides were analysed using the two-state reaction model, with the rate constant for the reverse second step (k-2) set to zero. The equilibrium constant of the reversible binding step, Ki, was calculated as the ratio of k-1/k+1 and the rate constant of the irreversible chemical step, kinact, as k+2. The Arg4, Cit4 and Me4 peptides were fitted using a 1:1 binding model. […]

[3] abbreviates: 1 h preincubation of peptide and PADI4, 10 mM CaCl2, read-out: IC50 Values 1 h preincubation.
Where [4] appears, read: no preincubation of peptide and PADI4, 10 mM CaCl2, read-out: IC50 Values 0 h preincubation.
[5] abbreviates: T=0, values starred, read-out: PADI4 activity normalised to 0.1% DMSO.
Setting [6] is: T=0, read-out: PADI4 activity normalised to 0.1% DMSO.
Setting [7] is: T=1, read-out: PADI4 activity normalised to 0.1% DMSO.
The mark [8] stands for this setting: two-state reaction model, k+2, read-out: SPR kinact (converted).
The mark [9] stands for this setting: no preincubation, read-out: PADI4 activity, normalised (Figure 4b dose-response).

Several values for one entry are separate records, joined by “and”; a condition that tells them apart may be missing. Identical values can stand only once. Like-named read-outs stand apart in the source and are kept apart here. *1 amine or outer side, *2 acyl side, *3 side chain or, on linkers, in order; H or OH if unused. Where a SMILES comes first, the peptide text is derived from it. Bridges are numbered along the chain shown (N, C = ends). [ ]: non-standard residue; d: D form. Orn(fluoroacetimidoyl) = N=C(CF)NCCC[C@H](N)C(=O)O; Orn(acetimidoyl) = CC(=N)NCCC[C@H](N)C(=O)O; X1 = N=C(CCl)NCCC[C@H](N[*:1])C(=O)[*:2]; Cit = NC(=O)NCCC[C@H](N)C(=O)O

T1 sequence (Q9UM07 whole entry): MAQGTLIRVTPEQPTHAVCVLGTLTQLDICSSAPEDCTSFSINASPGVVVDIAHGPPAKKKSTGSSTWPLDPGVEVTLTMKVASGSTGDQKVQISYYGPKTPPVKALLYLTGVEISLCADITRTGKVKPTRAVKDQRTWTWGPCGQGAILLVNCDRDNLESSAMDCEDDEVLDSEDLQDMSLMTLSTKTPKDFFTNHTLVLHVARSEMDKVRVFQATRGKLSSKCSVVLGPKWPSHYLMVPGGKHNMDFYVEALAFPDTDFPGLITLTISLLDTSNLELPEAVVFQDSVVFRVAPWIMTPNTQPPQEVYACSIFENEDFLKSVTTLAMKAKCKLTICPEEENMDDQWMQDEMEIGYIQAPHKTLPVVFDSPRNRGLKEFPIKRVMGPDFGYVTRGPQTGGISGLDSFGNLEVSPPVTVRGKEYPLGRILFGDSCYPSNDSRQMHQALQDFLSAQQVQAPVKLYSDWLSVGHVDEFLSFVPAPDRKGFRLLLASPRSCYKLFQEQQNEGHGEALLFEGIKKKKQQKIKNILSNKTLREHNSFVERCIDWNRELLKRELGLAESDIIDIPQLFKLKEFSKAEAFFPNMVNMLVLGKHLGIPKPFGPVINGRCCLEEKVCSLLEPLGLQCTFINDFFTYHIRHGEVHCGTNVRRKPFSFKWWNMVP

As for `CC[C@H](C)[C@@H]1NC(=O)[C@@H](Cc2ccc(O)cc2)NC(=O)CSC[C@@H](C(=O)NCC(N)=O)NC(=O)[C@H](CO)NC(=O)[C@H](CCCNC(=N)CF)NC(=O)[C@H](CC(=O)O)NC(=O)[C@H](CCCNC(=N)CF)NC(=O)[C@H](CC(C)C)NC(=O)CNC(=O)[C@H](Cc2c[nH]c3ccccc23)NC1=O` [cP4_2, yIWGL(2)D(2)SCG] ({CH2CO}-[dY]IWGL[Orn(fluoroacetimidoyl)]D[Orn(fluoroacetimidoyl)]SCG-NH2; thioether N-10), the IC50 on PADI4 [1] (setting [3]) was 870 ± 60 nM. Also, the half-inhibitory concentration (IC50) at PADI4 [1] (setting [4]) is greater than 50000 nM. In addition, at PADI4 [1] (setting [5]), the remaining activity at 0.003 µM came out at 107% and the remaining activity at 0.01 µM is 107%. Further, on PADI4 [1] (setting [6]), the remaining activity at 0.03 µM is 107%, the remaining activity at 0.1 µM was 108%, the remaining activity at 0.3 µM is 106% and the remaining activity at 1 µM came to 107%. For the same molecule, at PADI4 [1] (setting [6]), the remaining activity at 3 µM is 105%, the remaining activity at 10 µM is 101% and the remaining activity at 30 µM is 80.9%. At PADI4 [1] (setting [7]), the remaining activity at 0.1 µM amounted to 93.3%, the remaining activity at 0.3 µM was determined as 74.9%, the remaining activity at 1 µM turned out to be 42.9% and the remaining activity at 3 µM worked out at 7.63%. In addition, the remaining activity at 10 µM on PADI4 [1] (setting [7]) was 3.92%. Further, at PADI4 [1] (T=0 (no preincubation), read-out: PADI4 activity normalised to 0.1% DMSO), the remaining activity at 50 µM worked out at 64.4%. Besides, the kinact/KI at PADI4 [2] was 1530 M⁻¹ s⁻¹. For the same molecule, on PADI4 [2] (each replicate), the k2 / kinact was 0.0026 s⁻¹ and 0.0019 s⁻¹. In addition, the kinact on PADI4 [2] (each replicate, read-out: k2 / kinact) stood at 0.0014 s⁻¹. The kinact at PADI4 [2] (setting [8]) was 0.002 s⁻¹. This molecule also came in with a Ki on PADI4 [2] (two-state reaction model) of 1300 ± 500 nM.

For `N=C(N)NCCC[C@@H]1NC(=O)[C@H](CCCNC(=N)CCl)NC(=O)[C@H](CC(=O)O)NC(=O)[C@H](Cc2ccc(O)cc2)NC(=O)[C@H](CCCCN)NC(=O)[C@H](CO)NC(=O)[C@@H](Cc2ccc(O)cc2)NC(=O)CSC[C@@H](C(=O)NCC(N)=O)NC(=O)[C@H](CC(=O)O)NC(=O)[C@H](CCCNC(=N)N)NC(=O)[C@@H]2CCCN2C(=O)[C@H](CO)NC1=O` [Cl4] ({CH2CO}-[dY]SKYD[X1]RSPRDCG-NH2; thioether N-12), at PADI4 [1] (1 h, T = 1 h preincubation, read-out: PADI4 activity, normalised (Figure 4b dose-response)), the remaining activity at 0.1 µM was found to be 27.3%. In addition, the concentration for half-maximal inhibition (IC50) at PADI4 [1] (setting [3]) turned out to be 66 ± 9 nM. For the same molecule, the IC50 at PADI4 [1] (setting [4]) turned out to be 8200 ± 800 nM. Also, on PADI4 [1] (setting [9]), the remaining activity at 0.01 µM came out at 85.9%, the remaining activity at 0.03 µM came to 90.5%, the remaining activity at 0.1 µM was 86.7% and the remaining activity at 0.3 µM was 86.6%. At PADI4 [1] (setting [9]), the remaining activity at 1 µM was found to be 82.4%, the remaining activity at 10 µM is 34.1%, the remaining activity at 30 µM came to 12.5% and the remaining activity at 50 µM was 6.56%. The kinact/KI at PADI4 [2] was 1170 M⁻¹ s⁻¹. Moreover, the kinact at PADI4 [2] (setting [8]) is 0.00467 s⁻¹. Also, the Ki at PADI4 [2] (two-state reaction model) worked out at 4000 ± 200 nM.

On to `CC(=N)NCCC[C@@H]1NC(=O)[C@H](CC(=O)O)NC(=O)[C@H](Cc2ccc(O)cc2)NC(=O)[C@H](CCCCN)NC(=O)[C@H](CO)NC(=O)[C@@H](Cc2ccc(O)cc2)NC(=O)CSC[C@@H](C(=O)NCC(N)=O)NC(=O)[C@H](CC(=O)O)NC(=O)[C@H](CCCNC(=N)N)NC(=O)[C@@H]2CCCN2C(=O)[C@H](CO)NC(=O)[C@H](CCCNC(=N)N)NC1=O` [Me4] ({CH2CO}-[dY]SKYD[Orn(acetimidoyl)]RSPRDCG-NH2; thioether N-12), for which the IC50 at PADI4 [1] (setting [4]) was greater than 20000 nM. Further, at PADI4 [1] (setting [9]), the remaining activity at 0.003 µM amounted to 91%, the remaining activity at 0.01 µM worked out at 92.6%, the remaining activity at 0.03 µM amounted to 96.4% and the remaining activity at 0.1 µM was 92.1%. On PADI4 [1] (setting [9]), the remaining activity at 0.3 µM came to 93.7%, the remaining activity at 1 µM stood at 86.6%, the remaining activity at 3 µM stood at 84.6% and the remaining activity at 30 µM is 41.5%. Moreover, at PADI4 [1] (setting [9]), the remaining activity at 50 µM is 25.9%. Besides, binding on PADI4 [2] was characterised by a dissociation constant (Kd) of 1700 ± 400 nM.

In the case of `N=C(N)NCCC[C@@H]1NC(=O)[C@H](CC(=O)O)NC(=O)[C@H](Cc2ccc(O)cc2)NC(=O)[C@H](CCCCN)NC(=O)[C@H](CO)NC(=O)[C@@H](Cc2ccc(O)cc2)NC(=O)CSC[C@@H](C(=O)NCC(N)=O)NC(=O)[C@H](CC(=O)O)NC(=O)[C@H](CCCNC(=N)N)NC(=O)[C@@H]2CCCN2C(=O)[C@H](CO)NC(=O)[C@H](CCCNC(=N)N)NC1=O` [Arg4] ({CH2CO}-[dY]SKYDRRSPRDCG-NH2; thioether N-12), the IC50 on PADI4 [1] (setting [4]) is greater than 100000 nM. Besides, at PADI4 [1] (setting [9]), the remaining activity at 0.3 µM came to 101%. Binding at PADI4 [2] was put at a Kd of 2000 ± 200 nM.

As to `N=C(N)NCCC[C@@H]1NC(=O)[C@H](CCCNC(N)=O)NC(=O)[C@H](CC(=O)O)NC(=O)[C@H](Cc2ccc(O)cc2)NC(=O)[C@H](CCCCN)NC(=O)[C@H](CO)NC(=O)[C@@H](Cc2ccc(O)cc2)NC(=O)CSC[C@@H](C(=O)NCC(N)=O)NC(=O)[C@H](CC(=O)O)NC(=O)[C@H](CCCNC(=N)N)NC(=O)[C@@H]2CCCN2C(=O)[C@H](CO)NC1=O` [Cit4] ({CH2CO}-[dY]SKYD[Cit]RSPRDCG-NH2; thioether N-12), on PADI4 [1] (setting [4]), the IC50 is greater than 100000 nM. On PADI4 [1] (setting [9]), the remaining activity at 0.003 µM amounted to 96.7%, the remaining activity at 0.03 µM is 95.6%, the remaining activity at 0.1 µM was found to be 99.7% and the remaining activity at 0.3 µM worked out at 103%. At PADI4 [1] (setting [9]), the remaining activity at 3 µM was 101%, the remaining activity at 10 µM is 108%, the remaining activity at 30 µM is 103% and the remaining activity at 50 µM stood at 107%. For the same molecule, the dissociation constant (Kd) on PADI4 [2] was greater than 10000 nM.
